Assay results: patent US8673906B2, “Chromenone derivatives” (AstraZeneca AB, priority 2010, dated 2014)
Read-outs that look alike come from different tables or passages of the source.

Legend:
[1] = test system: phospho AKT (ser473) in MAD-MB-468 cells; assay: Detection of phospho AKT (ser473) in MAD-MB-468 cells; assay type: cell-based, human; conditions: Test (b)
Protocol: (b) Protocol for Detection of Phospho AKT (Ser473) in MAD-MB-468 Cells
MDA-MB-468 cells (human breast adenocarcinoma ATCC HTB 132) are seeded into Greiner 384 well black flat-bottomed plates by automated cell culture robot (Selec T). Cells can also be maintained manually and seeded into plates using multidrop or Wellmate. Cells seeded at 1500 cell/well in 40 μl of DMEN containing 10% FCS and 1% glutamine. Cell plates are incubated for 18 hours in a 37° C. incubator.
Compounds are dosed onto cells using an Echo acoustic dispenser, which dispenses nl quantities of compound or DMSO. Compounds are dosed in a 12 point concentration range from 30 μM top dose, 28 compounds are dosed on one plate. There are 17 DMSO only positive control wells per plate, and 16 negative control well which have been dosed with a concentration of reference compound that will knockout the pAKT signal.
Plates are incubated at 37° C. for 2 hours, cells are the fixed by the addition of 10 μl of a 3.7% Formaldehyde solution in a fume cupboard using a Wellmate.
After 30 minutes to allow for fixation, the fixative and media are removed and the plates washed with Proclin PBS/A using Tecan PW384 plate washer in a fume cupboard. Wells are blocked and permeabilised with the addition of 40 μl of PBS containing 0.5% Tween20 and 1% marvel using a Wellmate and incubated for 60 minutes at room temperature.
Permeabilisation and blocking buffer removed using Tecan PW384 plate washer, then 20 μl primary antibody solution added using a Wellmate. The primary antibody solution is a 1:500 dilution of Rabbit anti-phospho AKT Ser 473 (Cell signalling technologies catalogue number #3787) in PBS/T containing 1% marvel (dried milk powder) and incubated overnight at 4° C.
Plates are washed using a Tecan PW384 plate washer three times with Phosphate Buffered Saline+0.05% (v/v) Polysorbate20 and Proclin300 (Supelco). 20 μl of secondary antibody solution is then added to each well using a Wellmate and incubated for 1 hour at Room Temp. The secondary antibody solution is a 1:1000 dilution of Alexa Fluor 488 anti-Rabbit (Molecular Probes cat no A11008) diluted in Phosphate Buffered Saline+0.05% (v/v) Polysorbate20 containing 1% marvel. Plates are washed three times as before then 20 μl PBS added to each well and plates sealed with black plate sealer.
The plates are read on an Acumen reader as soon as possible. Using this system IC50 values can be generated and quality of plates determined by control wells. Reference compounds are run each time to monitor assay performance.

PI3Kβ = PI3Kβ (Homo sapiens (Human), UniProt P42338); assay: In vitro enzyme inhibition assay (Kinase Glo based enzyme activity assay); assay type: biochemical; conditions: Test (a)
Sequence of PI3Kβ (P42338 whole entry): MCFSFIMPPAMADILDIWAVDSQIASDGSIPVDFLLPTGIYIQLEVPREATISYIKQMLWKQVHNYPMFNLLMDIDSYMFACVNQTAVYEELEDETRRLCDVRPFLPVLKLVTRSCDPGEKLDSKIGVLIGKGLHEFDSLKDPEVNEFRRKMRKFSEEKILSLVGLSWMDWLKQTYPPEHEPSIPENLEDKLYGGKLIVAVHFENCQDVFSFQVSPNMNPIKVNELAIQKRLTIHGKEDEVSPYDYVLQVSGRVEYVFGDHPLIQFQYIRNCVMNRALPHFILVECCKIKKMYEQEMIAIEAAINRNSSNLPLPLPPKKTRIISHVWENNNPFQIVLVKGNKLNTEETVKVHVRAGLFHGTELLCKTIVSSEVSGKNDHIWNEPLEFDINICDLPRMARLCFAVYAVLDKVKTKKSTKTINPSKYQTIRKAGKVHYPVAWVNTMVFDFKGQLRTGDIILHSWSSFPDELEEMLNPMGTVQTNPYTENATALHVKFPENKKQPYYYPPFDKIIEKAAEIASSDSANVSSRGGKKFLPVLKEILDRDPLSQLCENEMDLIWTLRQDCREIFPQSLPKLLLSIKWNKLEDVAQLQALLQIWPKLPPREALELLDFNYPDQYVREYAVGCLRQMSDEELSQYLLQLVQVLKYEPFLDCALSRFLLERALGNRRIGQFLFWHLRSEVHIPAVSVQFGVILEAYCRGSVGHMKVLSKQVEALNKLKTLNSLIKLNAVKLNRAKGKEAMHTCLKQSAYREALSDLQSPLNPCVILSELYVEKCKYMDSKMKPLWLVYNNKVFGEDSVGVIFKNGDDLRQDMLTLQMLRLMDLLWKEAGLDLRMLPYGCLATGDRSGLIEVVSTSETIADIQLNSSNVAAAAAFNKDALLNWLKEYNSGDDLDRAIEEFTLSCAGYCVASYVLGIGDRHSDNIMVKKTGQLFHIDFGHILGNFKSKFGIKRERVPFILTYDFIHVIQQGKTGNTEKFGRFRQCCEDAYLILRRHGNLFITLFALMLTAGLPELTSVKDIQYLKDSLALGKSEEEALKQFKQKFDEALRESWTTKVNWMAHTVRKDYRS
Sequence of PI3Kβ (P27986 whole entry partner): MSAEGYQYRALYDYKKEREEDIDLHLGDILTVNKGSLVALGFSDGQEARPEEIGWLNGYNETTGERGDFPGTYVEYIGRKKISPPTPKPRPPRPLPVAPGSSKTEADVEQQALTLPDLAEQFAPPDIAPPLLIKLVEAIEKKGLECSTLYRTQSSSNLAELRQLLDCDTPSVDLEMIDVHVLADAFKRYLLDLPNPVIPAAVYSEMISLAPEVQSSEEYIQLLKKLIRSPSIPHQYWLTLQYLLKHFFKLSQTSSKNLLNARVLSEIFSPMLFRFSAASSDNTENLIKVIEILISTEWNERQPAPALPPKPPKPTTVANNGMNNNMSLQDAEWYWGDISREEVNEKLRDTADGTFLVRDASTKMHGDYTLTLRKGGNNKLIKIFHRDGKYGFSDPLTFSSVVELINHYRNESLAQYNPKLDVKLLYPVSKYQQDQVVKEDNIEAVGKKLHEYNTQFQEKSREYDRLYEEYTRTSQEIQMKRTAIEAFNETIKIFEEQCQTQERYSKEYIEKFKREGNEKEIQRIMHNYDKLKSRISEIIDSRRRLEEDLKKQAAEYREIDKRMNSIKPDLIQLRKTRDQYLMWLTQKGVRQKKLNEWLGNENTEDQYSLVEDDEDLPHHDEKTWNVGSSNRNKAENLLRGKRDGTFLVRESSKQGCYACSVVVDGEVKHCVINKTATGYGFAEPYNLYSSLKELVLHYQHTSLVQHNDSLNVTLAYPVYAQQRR
In short: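 ATP depletion by recombinant human PI3Kβ measured with Kinase-Glo luminescence after an 80 min reaction (final 80 μM ATP, 80 μM PIP2, 1% DMSO) in Tris pH 7.4 buffer with CHAPS, DTT and MgCl2, following 20 min enzyme–compound preincubation. Twelve concentrations fitted by non-linear regression for IC50.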

[2] = Homo sapiens, approximate value, read-out: IC50 versus cellular phospho AKT (ser473) in MAD-MB-468 cells
[3] = approximate value, read-out: IC50 versus PI3Kβ
[4] = human recombinant enzyme, read-out: PI3Kβ inhibition, IC50
[5] = Homo sapiens, mean IC50 value calculated from a larger number of replicates, read-out: IC50 versus cellular phospho AKT (ser473) in MAD-MB-468 cells (value in brackets)
[6] = approximate value, read-out: IC50 versus cellular phospho AKT (ser473) in MAD-MB-468 cells

| IC50 [1, 2] [nM] | IC50 (PI3Kβ; [3]) [nM] | IC50 (PI3Kβ; [4]) [nM] | IC50 [1, 5] [nM] | IC50 [1, 6] [nM] | Structure (SMILES) |
| --- | --- | --- | --- | --- | --- |
| ~15 | – | – | – | – | CC(c1cc(C(=O)N(C)C)cc2c(=O)cc(N3CCOCC3)oc12)N(C)c1cc(F)cc(F)c1 (single isomer, unassigned) [Example 5.0a, 8-(1-((3,5-difluorophenyl)(methyl)amino)ethyl)-N,N-dimethyl-2-morpholino-4-oxo-4H-chromene-6-carboxamide] |
| ~35 | ~9 | 9 | ~37 | – | CC(Nc1ccc(F)c(F)c1)c1cc(C(=O)N(C)C)cc2c(=O)cc(N3CCOCC3)oc12 (racemic) [Example 3.03, 8-(1-(3,4-difluorophenylamino)ethyl)-N,N-dimethyl-2-morpholino-4-oxo-4H-chromene-6-carboxamide] |
| – | – | – | ~3 | ~5 | CC(Nc1cc(F)cc(F)c1)c1cc(C(=O)N(C)C)cc2c(=O)cc(N3CCOCC3)oc12 (single isomer, unassigned; (-)) [Example 3.06b, (−)-8-(1-(3,5-difluorophenylamino)ethyl)-N,N-dimethyl-2-morpholino-4-oxo-4H-chromene-6-carboxamide] |
| ~12 | ~11 | 11 | – | – | CC(Nc1cccc(Cl)c1F)c1cc(C(=O)N(C)C)cc2c(=O)cc(N3CCOCC3)oc12 (racemic) [Example 3.04, 8-(1-(3-chloro-2-fluorophenylamino)ethyl)-N,N-dimethyl-2-morpholino-4-oxo-4H-chromene-6-carboxamide] |
| ~9 | – | – | – | – | CC(Nc1cc(F)cc(F)c1)c1cc(C(=O)N(C)C)cc2c(=O)cc(N3CCOCC3)oc12 (racemic) [Example 3.06, 8-(1-(3,5-difluorophenylamino)ethyl)-N,N-dimethyl-2-morpholino-4-oxo-4H-chromene-6-carboxamide] |
| ~17 | ~5 | 5 | – | – | CC(Nc1cccc(Cl)c1F)c1cc(C(=O)N(C)CCO)cc2c(=O)cc(N3CCOCC3)oc12 (centres unmarked) [Example 2.05, 8-(1-(3-chloro-2-fluorophenylamino)ethyl)-N-(2-hydroxyethyl)-N-methyl-2-morpholino-4-oxo-4H-chromene-6-carboxamide] |
| – | – | – | – | ~13500 | CC(Nc1cc(F)cc(F)c1)c1cc(C(=O)N(C)C)cc2c(=O)cc(N3CCOCC3)oc12 (single isomer, unassigned) [Example 3.06a, 8-(1-(3,5-difluorophenylamino)ethyl)-N,N-dimethyl-2-morpholino-4-oxo-4H-chromene-6-carboxamide] |
| ~9 | ~2 | 2 | – | – | CC(Nc1ccc(F)cc1)c1cc(C(=O)NCCN(C)C)cc2c(=O)cc(N3CCOCC3)oc12 (centres unmarked) [Example 1.00, N-(2-(dimethylamino)ethyl)-8-(1-(4-fluorophenylamino)ethyl)-2-morpholino-4-oxo-4H-chromene-6-carboxamide] |
| ~1 | ~4 | 4 | ~2 | – | CC(Nc1cc(F)cc(F)c1)c1cc(C(=O)N2CCCC2)cc2c(=O)cc(N3CCOCC3)oc12 (centres unmarked) [Example 4.02, 8-(1-(3,5-difluorophenylamino)ethyl)-2-morpholino-6-(pyrrolidine-1-carbonyl)-4H-chromen-4-one] |
| ~4300 | ~4500 | 4540 | – | – | CC(Nc1cc(F)cc(F)c1F)c1cc(C(=O)N(C)C)cc2c(=O)cc(N3CCOCC3)oc12 (single isomer, unassigned) [Example 3.13a, N,N-dimethyl-2-morpholino-4-oxo-8-(1-(2,3,5-trifluorophenylamino)ethyl)-4H-chromene-6-carboxamide] |
| ~27 | – | – | – | – | CC(Nc1cc(F)c(F)c(F)c1)c1cc(C(=O)N(C)C)cc2c(=O)cc(N3CCOCC3)oc12 (centres unmarked) [Example 3.11, N,N-dimethyl-2-morpholino-4-oxo-8-(1-(3,4,5-trifluorophenylamino)ethyl)-4H-chromene-6-carboxamide] |
| – | – | 3 | – | – | CC(Nc1cccc(Cl)c1F)c1cc(C(=O)N(C)C)cc2c(=O)cc(N3CCOCC3)oc12 (single isomer, unassigned) [Example 3.04b, 8-(1-(3-chloro-2-fluorophenylamino)ethyl)-N,N-dimethyl-2-morpholino-4-oxo-4H-chromene-6-carboxamide] |
| – | – | 4 | – | – | COCCNC(=O)c1cc(C(C)Nc2cc(F)cc(F)c2)c2oc(N3CCOCC3)cc(=O)c2c1 (centres unmarked) [Example 4.15, 8-(1-(3,5-difluorophenylamino)ethyl)-N-(2-methoxyethyl)-2-morpholino-4-oxo-4H-chromene-6-carboxamide] |
| – | – | 5 | – | – | CC(Nc1cc(F)cc(F)c1)c1cc(C(=O)N2CCCOCC2)cc2c(=O)cc(N3CCOCC3)oc12 (centres unmarked) [Example 4.25, 8-(1-(3,5-difluorophenylamino)ethyl)-2-morpholino-6-(1,4-oxazepane-4-carbonyl)-4H-chromen-4-one] |
| – | – | 4 | – | – | CC(Nc1cc(F)cc(F)c1)c1cc(C(=O)N2CCC[C@H]2CO)cc2c(=O)cc(N3CCOCC3)oc12 (stereo partly drawn) [Example 4.21, 8-(1-(3,5-difluorophenylamino)ethyl)-6-((S)-2-(hydroxymethyl)pyrrolidine-1-carbonyl)-2-morpholino-4H-chromen-4-one] |

| Structure (SMILES) | IC50 [1, 2] [nM] | IC50 (PI3Kβ; [3]) [nM] | IC50 (PI3Kβ; [4]) [nM] | IC50 [1, 5] [nM] | IC50 [1, 6] [nM] |
| --- | --- | --- | --- | --- | --- |
| CC(c1cc(C(=O)N(C)C)cc2c(=O)cc(N3CCOCC3)oc12)N(C)c1ccc(F)cc1 (centres unmarked) [Example 3.07, 8-(1-((4-fluorophenyl)(methyl)amino)ethyl)-N,N-dimethyl-2-morpholino-4-oxo-4H-chromene-6-carboxamide] | ~580 | ~29 | – | – | – |
